Patent US20260234139A1, “PGDH INHIBITORS AND METHODS OF MAKING AND USING” (Epirium Bio Inc., priority 2023, published 2026)

How the values were obtained:
15-PGDH/HPGD = target: T1, 15-PGDH/HPGD (Homo sapiens, UniProt P15428); experiment: hPGDH inhibitor screening biochemical assay; conditions: 10 nM enzyme, 15 μM Prostaglandin E2, 0.25 mM NAD, fluorescence ex/em 340/485 nm
T1 construct: purchased R&D System 5660-DH
T1 sequence (P15428 1-266): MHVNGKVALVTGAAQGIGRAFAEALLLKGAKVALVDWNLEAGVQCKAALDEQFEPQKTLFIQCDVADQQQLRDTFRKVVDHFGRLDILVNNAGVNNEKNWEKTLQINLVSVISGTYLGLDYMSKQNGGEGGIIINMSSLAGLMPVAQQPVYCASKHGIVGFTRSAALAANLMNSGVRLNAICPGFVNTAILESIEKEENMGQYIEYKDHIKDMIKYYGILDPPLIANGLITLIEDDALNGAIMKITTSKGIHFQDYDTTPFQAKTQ
Procedure: A hydroxyprostaglandin dehydrogenase inhibition screening biochemical assay can be performed to assess the synthesized inhibitors provided herein. Provided herein is an exemplary biochemical assay for hPGDH inhibitor screening.
The in vitro biochemical assay can be performed in white, 384 plates in total 20 μl reaction volume consisting of 10 nM of 15-PGDH/HPGD (R&D System #5660-DH), 15 μM Prostaglandin E2 (Sigma, Cat #P5640-10 MG) and 0.25 mM B-Nicotinamide adenine dinucleotide sodium salt (Sigma, Cat #N0632-5G) made in reaction buffer (50 mM Tris-HCl, pH 7.5, 0.01% Tween 20) at 10-point dose response curve for test/tool compounds. Briefly, 5 μl (4×) of compounds solution and 5 μl (final concentration, 10 nM) of enzyme solution is added to white 384 well plates and incubated for 10 mins at 37° C. 5 μl (4×) of Prostaglandin E2 and 5 μl (4×) of β-Nicotinamide adenine dinucleotide sodium salt is added to the wells and incubated for 10 mins at room temperature. Fluorescence is recorded at ex/em=340 nm/485 nm.

A549 = A549 EC50 (cell assay, method not described); type: cell-based

Row | IC50 (15-PGDH/HPGD) | EC50 (A549; Homo sapiens, A549, A549) | EC50 (A549; A549) | SMILES
1 | < 100 nM | < 100 nM | – | CC(C)C[C@@H](O)C(O)c1cnc2c(ccn2-c2cccc(-c3nnc[nH]3)c2)c1 (stereo in doubt) [Compound 3A, (1R,2R)-4-methyl-1-[1-[3-(4H-1,2,4-triazol-3-yl)phenyl]pyrrolo[2,3-b]pyridin-5-yl]pentane-1,2-diol]
2 | < 100 nM | < 100 nM | – | CC(C)OCC[C@@H](O)c1cnc2c(cnn2-c2cccc(-c3nnc[nH]3)c2)c1 [Compound 44A]
3 | 100 to 1000 nM | 100 to 1000 nM | – | COC1([C@@H](O)c2cnc3c(cnn3-c3cccc(-c4nnc[nH]4)c3)c2)CCC1 [Compound 65A]
4 | – | < 100 nM | – | O=C(O)c1ccc(-n2ncc3cc([C@@H](O)COCC4CCC4)cnc32)cc1 [Compound 101A]
5 | < 100 nM | 100 to 1000 nM | – | Cc1nn(-c2ccc(C(=O)O)cc2)c2ncc([C@H](O)COC3CC3)cc12 [Compound 126B]
6 | < 100 nM | < 100 nM | – | CC(C)(O)C[C@H](O)c1cnc2c(cnn2-c2cccc(-c3nnc[nH]3)c2)c1 [Compound 43B]
7 | < 100 nM | < 100 nM | – | CC(C)OC[C@@H](O)c1cnc2c(cnn2-c2ccc(C(=O)O)cc2)c1 [Compound 48B]
8 | < 100 nM | < 100 nM | – | O=C(O)c1ccc(-n2ncc3cc([C@@H](O)COCC4CC4)cnc32)cc1 [Compound 107A]
9 | – | < 100 nM | – | O=C(O)c1ccc(-n2ncc3cc([C@@H](O)C4CC(F)(F)C4)cnc32)cn1 [Compound 97B]
10 | < 100 nM | 100 to 1000 nM | – | O=C(O)CCc1ccc(-n2ncc3cc([C@@H](O)COC4CCC4)cnc32)cc1F [Compound 82A]
11 | < 100 nM | 100 to 1000 nM | – | CN(C)C(=O)c1cccc(-n2ncc3cc([C@@H](O)COC4CCC4)cnc32)c1 [Compound 111A]
12 | < 100 nM | < 100 nM | – | CCCC[C@H](O)c1cnc2c(ccn2-c2cc(Cl)cc(-c3nnc[nH]3)c2)c1 [Compound 17B]
13 | < 100 nM | < 100 nM | – | CCC1(OC[C@@H](O)c2cnc3c(cnn3-c3ccc(C(=O)O)cc3)c2)CC1 [Compound 93B]
14 | < 100 nM | < 100 nM | – | CCOC(C)(C)[C@@H](O)c1cnc2c(cnn2-c2ccc(C(=O)O)cc2)c1 [Compound 53B]
15 | < 100 nM | ≥ 1000 nM | – | CC(C)(O)C[C@@H](O)c1cnc2c(cnn2-c2cccc(-c3nnc[nH]3)c2)c1 [Compound 43A]
16 | < 100 nM | 100 to 1000 nM | – | O=C(O)c1ccc(-n2ccc3nc([C@H](O)COCC4CC4)cnc32)cc1 [Compound 112B]
17 | 100 to 1000 nM | ≥ 1000 nM | – | O=C(O)c1ccc(-n2ncc3cc([C@@H](O)COCC4(C(F)(F)F)CC4)cnc32)cc1 [Compound 113A]
18 | < 100 nM | < 100 nM | – | CC1(COC[C@H](O)c2cnc3c(cnn3-c3ccc(C(=O)O)cc3)c2)CC1 [Compound 106A]
19 | 100 to 1000 nM | – | – | CC(C)(O)c1cnc2c(ccn2-c2cc(Cl)cc(-c3nnc[nH]3)c2)c1 [Compound 14]
20 | – | < 100 nM | – | CCCCC(F)(F)[C@@H](O)c1cnc2c(ccn2-c2cccc(-c3nnc[nH]3)c2)c1 [Compound 8A]

Row | IC50 (15-PGDH/HPGD) | EC50 (A549; Homo sapiens, A549, A549) | EC50 (A549; A549) | SMILES
21 | < 100 nM | – | < 100 nM | CC(C)C[C@H](O)C(O)c1cnc2c(ccn2-c2cccc(-c3nnc[nH]3)c2)c1 (stereo in doubt) [Compound 3B, (1S,2S)-4-methyl-1-[1-[3-(4H-1,2,4-triazol-3-yl)phenyl]pyrrolo[2,3-b]pyridin-5-yl]pentane-1,2-diol]
22 | < 100 nM | < 100 nM | – | CC(C)OCC[C@@H](O)c1cnc2c(ccn2-c2cccc(-c3nnc[nH]3)c2)c1 [Compound 41B]
23 | < 100 nM | < 100 nM | – | COCC[C@@H](O)c1cnc2c(cnn2-c2cccc(-c3nnc[nH]3)c2)c1 [Compound 36A]
24 | 100 to 1000 nM | ≥ 1000 nM | – | O=C(O)c1ccc(-n2ncc3cc([C@@H](O)COCC4CC4)ccc32)cc1 [Compound 114A]
25 | < 100 nM | – | – | O=C(O)CCc1ccc(-n2ncc3cc([C@H](O)COC4CC4)cnc32)cc1F [Compound 86B]
26 | – | < 100 nM | – | O[C@H](c1cnc2c(cnn2-c2cccc(-c3nnc[nH]3)c2)c1)C1CCCC1 [Compound 9A]
27 | – | 100 to 1000 nM | – | Cc1nn(-c2ccc(C(=O)O)cc2)c2ncc([C@@H](O)COC3CCCC3)cc12 [Compound 104A]
28 | ≥ 1000 nM | – | – | CC(C)(O)c1cnc2c(cnn2-c2cc(Cl)cc(-c3nnc[nH]3)c2)c1 [Compound 19, 2-[1-[3-chloro-5-(4H-1,2,4-triazol-3-yl)phenyl]pyrazolo[3,4-b]pyridin-5-yl]propan-2-ol]
29 | 100 to 1000 nM | – | – | CC(O)(c1cnc2c(ccn2-c2cccc(-c3nnc[nH]3)c2)c1)C1CCCC1 (single isomer, unassigned) [Compound 11A]
30 | – | 100 to 1000 nM | – | Cc1nn(-c2ccc(C(=O)O)cc2)c2ncc([C@H](O)COC3CCCC3)cc12 [Compound 104B]
31 | < 100 nM | – | – | CC(C)(C)OC[C@H](O)c1cnc2c(ccn2-c2cccc(-c3nnc[nH]3)c2)c1 [Compound 31A]
32 | ≥ 1000 nM | – | – | CC(O)(c1cnc2c(ccn2-c2cccc(-c3nnc[nH]3)c2)c1)C1CCCC1 (single isomer, unassigned) [Compound 11B]
33 | < 100 nM | – | – | CC(C)OC[C@@H](O)c1cnc2c(cnn2-c2ccc(OCC(=O)O)cc2)c1 [Compound 78B]
34 | – | ≥ 1000 nM | – | O=C(O)c1ccc(-n2ncc3cc([C@@H](O)COC4CC(F)(F)C4)cnc32)cc1 [Compound 91A]
35 | – | < 100 nM | – | O=C(O)c1ccc(-n2ccc3cc([C@H](O)[C@H]4CCCO4)cnc32)cc1 [Compound 100B]
36 | – | 100 to 1000 nM | – | CS(=O)(=O)c1cccc(-n2ncc3cc([C@@H](O)COC4CCC4)cnc32)c1 [Compound 123A]
37 | – | ≥ 1000 nM | – | CS(=O)(=O)c1cccc(-n2ncc3cc([C@H](O)COC4CCC4)cnc32)c1 [Compound 123B]
38 | – | < 100 nM | – | O[C@@H](c1cnc2c(cnn2-c2cccc(-c3nnc[nH]3)c2)c1)C1CCCC1 [Compound 9B]
39 | – | ≥ 1000 nM | – | O=C(O)c1ccc(-n2ncc3cc([C@H](O)COC4CC(F)(F)C4)cnc32)cc1 [Compound 91B]
40 | – | < 100 nM | – | O[C@H](c1cnc2c(ccn2-c2cccc(-c3nnc[nH]3)c2)c1)C1CCCC1 [Compound 6A]

Row | IC50 (15-PGDH/HPGD) | EC50 (A549; Homo sapiens, A549, A549) | EC50 (A549; A549) | SMILES
41 | – | ≥ 1000 nM | – | O=C(O)c1ccc(-n2ccc3cc([C@@H](O)[C@H]4CCCO4)cnc32)cc1 [Compound 100A]
42 | – | ≥ 1000 nM | – | O=C(O)CCc1ccc(-n2ncc3cc([C@H](O)COC4CCC4)cnc32)cc1F [Compound 82B]
43 | – | 100 to 1000 nM | – | Cc1nn(-c2ccc(C(=O)O)cc2)c2ncc([C@@H](O)C3CC(F)(F)C3)cc12 [Compound 102B]
44 | – | < 100 nM | – | O=C(O)c1ccc(-n2ccc3cc([C@H](O)[C@@H]4CCCO4)cnc32)cc1 [Compound 98B]
45 | 100 to 1000 nM | – | – | O=C(O)c1ccc(-n2ncc3cc([C@@H](O)C4COC4)ccc32)cc1 [Compound 120B]
46 | – | ≥ 1000 nM | – | O=C(O)c1ccc(-n2ncc3cc([C@H](O)C4CC(F)(F)C4)cnc32)cn1 [Compound 97A]
47 | – | < 100 nM | – | OC(c1cnc2c(ccn2-c2cccc(-c3nnc[nH]3)c2)c1)C1CC(F)(F)C1 (stereo in doubt) [Compound 7A, (R)-(3,3-difluorocyclobutyl)-[1-[3-(4H-1,2,4-triazol-3-yl)phenyl]pyrrolo[2,3-b]pyridin-5-yl]methanol]
48 | – | < 100 nM | – | CC1(C)CC(OC[C@@H](O)c2cnc3c(cnn3-c3ccc(C(=O)O)cc3)c2)C1 [Compound 105B]
49 | – | < 100 nM | – | O=C(O)c1ccc(-n2ccc3cc([C@@H](O)COC4CCC4)cnc32)cc1 [Compound 103A]
50 | – | 100 to 1000 nM | – | CC1(C)CC(OC[C@H](O)c2cnc3c(cnn3-c3ccc(C(=O)O)cc3)c2)C1 [Compound 105A]
51 | – | ≥ 1000 nM | – | Cc1nn(-c2ccc(C(=O)O)cc2)c2ncc([C@H](O)C3CC(F)(F)C3)cc12 [Compound 102A]
52 | 100 to 1000 nM | – | – | OC1(c2cnc3c(ccn3-c3cc(Cl)cc(-c4nnc[nH]4)c3)c2)CCCC1 [Compound 13]
53 | < 100 nM | – | – | O[C@@H](COC1CCC1)c1cnc2c(cnn2-c2ccc(-c3nnn[nH]3)cc2)c1 [Compound 79B]
54 | < 100 nM | – | – | CC(C)OC[C@H](O)c1cnc2c(cnn2-c2ccc(CCCC(=O)O)c(F)c2)c1 [Compound 77B]
55 | – | 100 to 1000 nM | – | CCCCC(F)(F)[C@H](O)c1cnc2c(ccn2-c2cccc(-c3nnc[nH]3)c2)c1 [Compound 8B]
56 | – | ≥ 1000 nM | – | O=C(O)c1ccc(-n2ccc3cc([C@@H](O)[C@@H]4CCCO4)cnc32)cc1 [Compound 98A]
57 | – | < 100 nM | – | OC(c1cnc2c(ccn2-c2cccc(-c3nnc[nH]3)c2)c1)C1CC(F)(F)C1 (stereo in doubt) [Compound 7B, (S)-(3,3-difluorocyclobutyl)-[1-[3-(4H-1,2,4-triazol-3-yl)phenyl]pyrrolo[2,3-b]pyridin-5-yl]methanol]
58 | – | 100 to 1000 nM | – | O[C@@H](c1cnc2c(ccn2-c2cccc(-c3nnc[nH]3)c2)c1)C1CCCC1 [Compound 6B]
59 | – | 100 to 1000 nM | – | O=C(O)c1ccc(-n2ccc3cc([C@H](O)COC4CCC4)cnc32)cc1 [Compound 103B]
